Source: patent publication US20090054421A1, “Pyrimidothiophene Compounds Having HSP90 Inhibitory Activity” (Vernalis R & D Limited, priority 2005, published 2009)

molecular target: T1, human full-length HSP90 (Homo sapiens, UniProt P08238); assay: Fluorescence polarization assay (competitive displacement of fluorescein-labelled probe from HSP90); format: binding; details: activity range A or B
T1 construct: E. coli expressed human full-length HSP90 protein, purified >95%; made in house; host or cells: E. coli
Source text: Fluorescence Polarization Assay
Fluorescence polarization {also known as fluorescence anisotropy} measures the rotation of a fluorescing species in solution, where the larger molecule the more polarized the fluorescence emission. When the fluorophore is excited with polarized light, the emitted light is also polarized. The molecular size is proportional to the polarization of the fluorescence emission.
The fluoroscein-labelled probe—
binds to HSP90 {full-length human, full-length yeast or N-terminal domain HSP90} and the anisotropy {rotation of the probe:protein complex} is measured.
Test compound is added to the assay plate, left to equilibrate and the anisotropy measured again. Any change in anisotropy is due to competitive binding of compound to HSP90, thereby releasing probe.
Chemicals are of the highest purity commercially available and all aqueous solutions are made up in AR water. • 1) Costar 96-well black assay plate #3915 • 2) Assay buffer of (a) 100 mM Tris pH7.4; (b) 20 mM KCl; (c) 6 mM MgCl2. Stored at room temperature. • 3) BSA (bovine serum albumen) 10 mg/ml (New England Biolabs # B9001S) • 4) 20 mM probe in 100% DMSO stock concentration. Stored in the dark at RT. Working concentration is 200 nM diluted in AR water and stored at 4° C., Final concentration in assay 80 nM. • 5) E. coli expressed human full-length HSP90 protein, purified >95% (see, e.g., Panaretou et al., 1998) and stored in 50 μL aliquots at −80° C.
• 1) Add 100 μl 1× buffer to wells 11A and 12A (=FP BLNK) • 2) Prepare assay mix—all reagents are kept on ice with a lid on the bucket as the probe is light-sensitive.
• 3) Aliquot 100 μl assay mix to all other wells • 4) Seal plate and leave in dark at room temp for 20 minutes to equilibrate Compound Dilution Plate—1×3 dilution series • 1) In a clear 96-well v-bottom plate—{# VWR 007/008/257} add 10 μl 100% DMSO to wells B1 to H11 • 2) To wells A1 to A11 add 17.5 μl 100% DMSO • 3) Add 2.5 μl cpd to A1. This gives 2.5 mM {50×} stock cpd—assuming cpds 20 mM. • 4) Repeat for wells A2 to A10. Control in columns 11 and 12. • 5) Transfer 5 μl from row A to row B—not column 12. Mix well. • 6) Transfer 5 μl from row B to row C. […] In column 11 {provides standard curve} only add compound B11-H11. Add 2 μl of 100 mM standard cpd to wells B12-H12 {is positive control} • 13) The Z′ factor is calculated from zero controls and positive wells. It typically gives a value of 0.7-0.9.
The compounds tested in the above assay were assigned to one of two activity ranges, namely A=<10 μM; B=>10 μM, and those assignments are reported above.

T1 sequence (P08238 whole entry): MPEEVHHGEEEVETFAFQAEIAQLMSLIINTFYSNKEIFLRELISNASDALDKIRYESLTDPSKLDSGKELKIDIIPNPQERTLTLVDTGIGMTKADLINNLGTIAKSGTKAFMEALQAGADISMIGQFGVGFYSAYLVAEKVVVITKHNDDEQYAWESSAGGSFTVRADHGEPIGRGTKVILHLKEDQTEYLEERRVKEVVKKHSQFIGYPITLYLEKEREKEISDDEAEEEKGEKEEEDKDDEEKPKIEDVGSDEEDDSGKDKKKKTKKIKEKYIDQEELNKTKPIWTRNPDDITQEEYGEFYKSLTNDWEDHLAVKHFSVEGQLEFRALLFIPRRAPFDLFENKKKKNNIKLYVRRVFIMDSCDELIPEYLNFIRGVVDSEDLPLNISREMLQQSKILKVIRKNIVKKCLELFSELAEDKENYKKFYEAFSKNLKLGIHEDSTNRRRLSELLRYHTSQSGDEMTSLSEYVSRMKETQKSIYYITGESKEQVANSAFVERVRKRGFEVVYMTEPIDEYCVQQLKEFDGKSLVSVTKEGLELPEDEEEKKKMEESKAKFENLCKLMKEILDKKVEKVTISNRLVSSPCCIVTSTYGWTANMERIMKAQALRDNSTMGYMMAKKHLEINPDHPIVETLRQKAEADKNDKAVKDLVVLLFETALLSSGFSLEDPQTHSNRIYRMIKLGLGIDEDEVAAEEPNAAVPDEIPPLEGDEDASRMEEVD

Row | SMILES | IC50
1 | CN(C)CCNC(=O)c1cc2c(C(=NOCCN3CCCC3)c3ccc4c(c3)OCO4)nc(N)nc2s1 [Example 63] | > 10 µM
2 | CN(C)CCNC(=O)c1cc2c(C(=NOCCN3CCCC3=O)c3ccc4c(c3)OCO4)nc(N)nc2s1 [Example 64] | > 10 µM
3 | CCN(CC)CCON=C(c1ccc2c(c1)OCO2)c1nc(N)nc2sc(C(=O)NCCN(C)C)cc12 [Example 65] | > 10 µM
4 | CCNC(=O)c1cc2c(C(=NOCCN3CCCC3)c3ccc(-n4cccc4)cc3)nc(N)nc2s1 [Example 68] | > 10 µM
5 | CCNC(=O)c1cc2c(C(=NOCCN3CCCC3)c3ccc(-n4cccn4)cc3)nc(N)nc2s1 [Example 69] | > 10 µM
6 | CCNC(=O)c1cc2c(C(=NOCCN(CC)CC)c3ccc(-n4cccc4)cc3)nc(N)nc2s1 [Example 70] | > 10 µM
7 | CCNC(=O)c1cc2c(C(=NOCCN3CCCC3=O)c3ccc(-n4cccc4)cc3)nc(N)nc2s1 [Example 71] | > 10 µM
8 | CCNC(=O)c1cc2c(C(=NOCCN(CC)CC)c3ccc(N4CCCC4=O)cc3)nc(N)nc2s1 [Example 73] | > 10 µM
9 | CCNC(=O)c1cc2c(C(=NO)c3ccc(N4CCCC4=O)cc3)nc(N)nc2s1 [Example 78] | < 10 µM
10 | CCNC(=O)c1cc2c(C(=NO)c3ccc(-n4cccc4)cc3)nc(N)nc2s1 [Example 80] | < 10 µM
11 | CCNC(=O)c1cc2c(C(=NO)c3ccc(-n4cccn4)cc3)nc(N)nc2s1 [Example 81] | < 10 µM

The remaining lines, values ahead:

Row | IC50 | SMILES
12 | < 10 µM | CCNC(=O)c1cc2c(C(=NOCCN3CCCC3=O)c3ccc(-n4cccn4)cc3)nc(N)nc2s1 [Example 67]
13 | < 10 µM | CCNC(=O)c1cc2c(C(=NOCCN3CCCC3)c3ccc(N4CCCC4=O)cc3)nc(N)nc2s1 [Example 72]
14 | < 10 µM | CCN(CC)CCON=C(c1ccc2c(c1)OCO2)c1nc(N)nc2sc(C(=O)NCC(F)(F)F)cc12 [Example 74]
15 | < 10 µM | Nc1nc(C(=NOCCN2CCCC2)c2ccc3c(c2)OCO3)c2cc(C(=O)NCC(F)(F)F)sc2n1 [Example 75]
16 | < 10 µM | Nc1nc(C(=NOCCN2CCCC2=O)c2ccc3c(c2)OCO3)c2cc(C(=O)NCC(F)(F)F)sc2n1 [Example 76]
17 | < 10 µM | CCNC(=O)c1cc2c(C(=NOCCN3CCCC3=O)c3ccc(N4CCCC4=O)cc3)nc(N)nc2s1 [Example 77]
